Measured values reported in US11844802B2, “Compounds and compositions for ossification and methods related thereto” (Emory University, priority 2010, dated 2023).

Experiments:
[1] = test system: alkaline phosphatase activity; experiment: BMP-2 induced alkaline phosphatase (ALP) enzyme activity assay in C2C12 cells; format: cell-based, Mouse
Method: (§1) Mouse C2C12 cells and Dulbecco's modified Eagle's medium (DMEM) were purchased from ATCC (Manassas, VA). The non-heat inactivated fetal bovine serum (FBS) was purchased from HyClone Laboratories, Inc. (Logan, UT). The C2C12 cells at passages 5 to 10 were subcultured in T-75 cm^2 flasks in DMEM supplemented with 10% FBS at 37° C. in 5% CO2 with humidification. When the flasks reached 80% confluence, the cells were trypsinized and seeded in triplicate at 200,000 cells/well in a 6-well plate for quantitative real-time RT-PCR and alkaline phosphatase (ALP) assays or at 50,000 cells/well in a 12-well plate for the dual-luciferase reporter assay.
The C2C12 cells were plated at 200,000 cells/well in 6-well plates and grown overnight in DMEM containing 10% FBS. On day 2, the culture medium was replaced with DMEM containing 2% FBS and the cells were treated with various concentrations of the Smurf1-interacting compound for 24 hours. On day 3, the medium was replaced with fresh DMEM containing 2% FBS and the cells were treated with 50 ng/ml of BMP-2 with or without compound for 72 hours. The cells were washed with phosphate-buffered saline (PBS) and lysed by addition of lysis buffer (10 mM Tris-HCl pH 8.0, 1 mM MgCl2 and 0.5% Triton X-100). The cell lysates were centrifuged for 5 minutes at 13,000×g. The supernatant was removed and the aliquots were assayed for ALP activity and protein amount. The ALP activity was measured in triplicate using an ALP assay kit (Sigma-Aldrich, St. Louis, MO) in microtiter plates. The protein amount was determined with Bio-Rad™ protein assay reagent (Bio-Rad, Hercules, CA) using bovine serum albumin (BSA) as a standard. The ALP activity (nmoles of p-nitrophenol per ml) was normalized to the protein amount (nmoles of p-nitrophenol per μg).
(§2) The EC50 values were calculated by determining the concentration by which 50% of maximum activity was reached using the sigmoidal fit equation. The 50% effective concentrations were determined with the standard curve analysis of SigmaPlot™ 8.02. […]

C2C12 myoblasts = experiment: BMP-2 responsiveness / osteoblastic transdifferentiation of C2C12 myoblasts, multiple assays; format: cell-based, Mouse
Source text: Derivatives with desired attributes can be evaluated using the procedure described below.
Compounds were selected by virtual screening for development based on computational modeling, docking, and in silico screening. […] (See Sangadala et al. (2007) Proteins 68: 690-701 and FIG. 2). The BMP-potentiating activities of compounds may be evaluated by monitoring several markers of the osteoblastic phenotype corresponding to various time points during phenotype differentiation of C2C12 cells towards terminally differentiated osteoblasts.

[2] = test system: BMP-specific Smad1-driven 9×GCCG reporter; experiment: BMP-2 induced Smad1-driven dual-luciferase reporter assay in C2C12 cells; format: cell-based, Mouse; settings: BMP-2 1 ng/ml
Source text: A cell-based method was optimized to monitor BMP-2 induced responses. […] One can monitor transcriptional activity driven by activated Smad1 in C2C12 cells in a cell-based assay utilizing a Smad1-specific luciferase reporter plasmid containing a multimerized -GCCG- motif (9 copies). […] A concentration range of BMP-2 required for activating the reporter assay was established.
A BMP-specific Smad1-driven 9×GCCG (a consensus binding sequence for Smad1) reporter plasmid was used. The C2C12 cells were trypsinized and seeded in triplicate wells at 50,000 cells/well in 12-well plates on day 1. On day 2, the cells were cotransfected with the 9×GCCG-reporter construct and the renilla-luciferase control vector using SuperFect (Qiagen, Valencia, CA) for 24 hrs. […] On day 5, the luciferase activities were measured in 20 μl of cell-lysate using the dual-luciferase assay system (Promega, Madison, WI) with a luminometer (LumiCount™; Packard Bioscience, Meriden, CT) following the manufacturer's instructions. The luciferase activity was expressed as relative units of luciferase (RUL; a ratio of firefly luciferase to renilla luciferase activity). […]

[3] = test system: alkaline phosphatase mRNA; experiment: BMP-2 induced alkaline phosphatase mRNA level, quantitative real-time RT-PCR in C2C12 cells; format: cell-based, Mouse; settings: for increase in alkaline phosphatase mRNA by BMP-2 alone: compared to no treatment control
Method: as §1
(§3) The C2C12 cells were plated at a density of 200,000 cells/well in 6-well plates and grown overnight in DMEM containing 10% FBS. On day 2, the culture medium was replaced with DMEM containing 2% FBS and the cells were treated with various concentrations of Smurf1-interacting compound (diluted from 10 mg/ml stock solutions prepared in DMSO) for 24 hours. In control cultures, a DMSO solvent concentration of 0.01% (v/v) was applied. On day 3, medium was replaced with fresh DMEM containing 2% FBS and the cells were treated with BMP-2 for 24 hours.
(§4) Total RNA was harvested using the RNeasy Mini Kit according to the manufacturer's instructions (Qiagen, Valencia, CA). The harvested RNA was digested with RNase-free DNase I (Qiagen, Valencia, CA) to remove DNA contamination. The concentration of the isolated RNA was determined by measuring the absorbance at 260 nm wave length with a spectrophotometer (Model DU 640, Beckman Coulter, Inc. Brea, CA). The ratio of A260/A280 was between 1.6 and 1.8. Reverse transcription was carried out to synthesize cDNA in a 100 μl volume with 2 μg of total RNA, 10×RT buffer, 5.5 mM MgCl2, 2 mM dNTP mixture, 0.125 μM oligo d(T), 0.125 μM random primer, 40 Units of RNase inhibitor, and 125 Units of MultiScribe™ (Applied Biosystems, Foster City, CA) for 10 minutes at 25° C., 30 minutes at 48° C., and 5 minutes at 95° C.
Quantitative real-time RT-PCR was performed to determine the mRNA expression level of ALP and osteocalcin. The sequences of the primers were as follows: ALP (forward, 5′-TCAGGGCAATGAGGTCACATC-3′; (SEQ ID NO: 6), reverse, 5′-CAC AAT GCC CAC GGA CTT C-3′) (SEQ ID NO: 7), osteocalcin (forward, 5′-CGGCCCTGAGTCTGACAAAG-3′; (SEQ ID NO: 8) reverse, 5′-CTCGTCACAAGCAGGGTCAA-3′ (SEQ ID NO: 9)). Twenty-five microliters of reaction volume included 5 μl of cDNA, 0.5 μl of 10 μM of each primer and 12.5 μl of 2×SYBR green master mix (Applied Biosystems). […]

osteocalcin mRNA = experiment: BMP-2 induced osteocalcin mRNA level, quantitative real-time RT-PCR in C2C12 cells; format: cell-based, Mouse; settings: for increase in osteocalcin mRNA by BMP-2 alone: compared to no treatment control
Method: as §1, §3, §4
Quantitative real-time RT-PCR was performed to determine the mRNA expression level of ALP and osteocalcin. The sequences of the primers were as follows: ALP (forward, 5′-TCAGGGCAATGAGGTCACATC-3′; (SEQ ID NO: 6), reverse, 5′-CAC AAT GCC CAC GGA CTT C-3′) (SEQ ID NO: 7), osteocalcin (forward, 5′-CGGCCCTGAGTCTGACAAAG-3′; (SEQ ID NO: 8) reverse, 5′-CTCGTCACAAGCAGGGTCAA-3′ (SEQ ID NO: 9)). Twenty-five microliters of reaction volume included 5 μl of cDNA, 0.5 μl of 10 μM of each primer and 12.5 μl of 2×SYBR green master mix (Applied Biosystems). Real-time PCR was performed with the following three-step protocol: step 1, 50° C. for 2 minutes; step 2, 95° C. for 10 minutes; step 3, 40 cycles of 95° C. for 15 seconds and 62° C. for 1 minute using the 7500 real-time PCR System (Applied Biosystems, Foster City, CA). To confirm the amplification specificity, the PCR products were subjected to a dissociation curve analysis. The threshold cycles (Ct) of each reaction were normalized to those obtained for 18S mRNA using the −ΔΔCt method (Applied Biosystems). All PCR reactions were performed in triplicate.
as §2

rat model = experiment: in vivo bone-formation in rat model (ectopic bone induction); settings: without any BMP-2
C2C12 cells = experiment: cell lifting / cell number observation in C2C12 reporter assay; format: cell-based, Mouse; settings: reduced number of cells at end of experiment
Method: Compounds were tested experimentally for their ability to potentiate BMP-2 activity in our luciferase reporter assay using C2C12 cells (FIGS. 5A and 5B).

EC50 ([2]; Mus musculus, C2C12, calculated from the Hill plot, read-out: EC50, potentiation of BMP-2 luciferase reporter activity)	EC50 ([3]; Mus musculus, C2C12, BMP-2 20 ng/ml, estimated, read-out: EC50, expression of alkaline phosphatase mRNA)	EC50 (osteocalcin mRNA; Mus musculus, C2C12, BMP-2 20 ng/ml, estimated, read-out: EC50, expression of osteocalcin mRNA)	EC50 ([1]; Mus musculus, C2C12, BMP-2 50 ng/ml, estimated)	concentration causing lifting of some cells from the plates (C2C12 cells)	Molecule	efficacy relative to other derivatives in cell-based alkaline phosphatase assay ([1]; screening, FIG. 9)	potentiation of BMP-2 induced transdifferentiation of C2C12 myoblasts into the osteoblastic phenotype (C2C12 myoblasts)	optimum enhancement of BMP-2 induced luciferase activity ([2]; compound 1.0 μg/ml, compared to BMP-2 alone, P<0.05)	maximal increase in BMP-induced alkaline phosphatase mRNA level ([3]; BMP-2 20 ng/ml, compared to BMP-2 alone, P<0.05)	effect of compound alone on osteocalcin mRNA (osteocalcin mRNA; absence of BMP-2)	maximal increase in BMP-induced osteocalcin mRNA level (osteocalcin mRNA; compound 1.0 μg/ml, BMP-2 20 ng/ml, compared to BMP-2 alone, P<0.05)	maximal increase in BMP-2 induced ALP activity ([1]; compound 1.0 μg/ml, BMP-2 50 ng/ml, compared to BMP-2 alone, P<0.001)	bone-formation in rat model (rat model)	effective dose of compound among multiple assays (C2C12 myoblasts; C2C12 cells, BMP-2 induced markers)	effect on BMP-2-induced response (C2C12 myoblasts; dose of 0.1 μg/ml)	increase in alkaline phosphatase mRNA by BMP-2 alone ([3]; absence of DMSO)	increase in alkaline phosphatase mRNA by BMP-2 alone ([3]; presence of DMSO (0.01%))	increase in osteocalcin mRNA by BMP-2 alone (osteocalcin mRNA; absence of DMSO)	increase in osteocalcin mRNA by BMP-2 alone (osteocalcin mRNA; presence of DMSO (0.01%))
					CC1(C)N=C(N)N=C(N)N1c1ccc(Cl)cc1 [Compound 12X, 1-(4-chlorophenyl)-4,6-diamino-1,2-dihydro-2,2-dimethyl-1,3,5-triazine]	more efficacious	potentiate the effects of BMP-2												
2.6 µM	1.5 to 5.3 µM	1.5 to 5.3 µM	3.7 µM	higher than 1.5 ug/ml	C=Cc1nc(N)nc(N)n1 [Compound 12, 2,4-diamino-6-vinyl-1,3,5-triazine]		potentiate the effects of BMP-2	3.8 fold	3.5 fold	no significant effect	4.4 fold	4.8 fold	capable of inducing bone-formation	0.275 to 1.0 µg/mL	elevated the BMP-2-induced response significantly				
					BMP-2: bone morphogenetic protein, growth factor known to induce bone and cartilage formation and play a role in osteoblast differentiation (protein, listed as Homo sapiens) MVAGTRCLLALLLPQVLLGGAAGLVPELGRRKFAAASSGRPSSQPSDEVLSEFELRLLSMFGLKQRPTPSRDAVVPPYMLDLYRRHSGQPGSPAPDHRLERAASRANTVRSFHHEESLEELPETSGKTTRRFFFNLSSIPTEEFITSAELQVFREQMQDALGNNSSFHHRINIYEIIKPATANSKFPVTRLLDTRLVNQNASRWESFDVTPAVMRWTAQGHANHGFVVEVAHLEEKQGVSKRHVRISRSLHQDEHSWSQIRPLLVTFGHDGKGHPLHKREKRQAKHKQRKRLKSSCKRHPLYVDFSDVGWNDWIVAPPGYHAFYCHGECPFPLADHLNSTNHAIVQTLVNSVNSKIPKACCVPTELSAISMLYLDENEKVVLKNYQDMVVEGCGCR											43 fold	51 fold	9 fold	7 fold
